The source of these data is patent publication US9790169B2, “IDO inhibitors” (BRISTOL-MYERS SQUIBB COMPANY, priority 2015, dated 2017).

In this assay the target is human IDO1 (Homo sapiens, UniProt P14902). Kind of assay: Assessment of human IDO-1 inhibitory activity in Hela cells (Interferon-gamma stimulated HeLa cells, Ehrlich reagent, absorbance 490 nm). Format: cell-based. More on the design: endogenous in cells; host or cells: HeLa cells stimulated with interferon-gamma. The following applies: Hela Human IDO-1 cellular assay. The method, then: Exemplary compounds were tested for inhibition of IDO activity.
human IDO1, sequence (P14902 whole entry): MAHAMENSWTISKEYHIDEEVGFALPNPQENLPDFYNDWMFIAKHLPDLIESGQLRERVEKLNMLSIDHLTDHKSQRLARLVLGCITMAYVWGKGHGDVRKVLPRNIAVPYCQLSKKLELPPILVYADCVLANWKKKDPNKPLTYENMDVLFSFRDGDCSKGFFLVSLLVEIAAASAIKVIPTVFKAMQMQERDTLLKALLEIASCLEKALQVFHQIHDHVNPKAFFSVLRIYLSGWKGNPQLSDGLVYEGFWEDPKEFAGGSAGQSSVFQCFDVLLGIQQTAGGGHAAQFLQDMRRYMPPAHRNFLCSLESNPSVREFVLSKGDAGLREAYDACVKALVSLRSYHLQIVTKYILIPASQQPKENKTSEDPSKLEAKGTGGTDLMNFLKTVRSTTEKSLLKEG
Assessment of Human IDO-1 Inhibitory Activity in Hela Cells
HeLa cells were seeded at 20,000 cells per 30 μL per well with RPMI/phenol red free media containing 10% FBS in a 384-well tissue culture plate (black with clear bottoms). 50 nL of compound was added to cells and incubated at 37° C. for one hour. 20 μL of the recombinant human Interferon-gamma (R&D System, Cat. #285-IF, at final concentration of 10 ng/ml) or recombinant murine Interferon-gamma (PEPROTECH® Inc., Cat. #315-05, final concentration of 5 ng/ml) was added to activate IDO signaling. The cells were incubated for 18 hours in 37° C. incubator with 5% CO2.
Compound treatment was stopped by adding 5 μl trichloroacetic acid to a final concentration of 3%. Subsequently, the cell plate was further incubated at 50° C. for 30 minute. An equal volume supernatant (20 μL) and 2% (w/v) Ehrlich reagent (4-dimethylaminobenzaldehyde) in glacial acetic acid were mixed in a new clear bottom 384-well plate. This plate was incubated at room temperature for 30 minutes. Absorbance at 490 nm was measured on Envision plate reader.
Compound IC50 values were calculated using counts from unstimulated (no INF-gamma treatment) wells as 100% inhibition. INF-gamma treatment without compound treatment as 0% inhibition.

The compound `CCN(c1ccc(C(COC)CC(=O)O)cc1Nc1ccc(Cl)cc1)C1CCS(=O)(=O)CC1` (single isomer, unassigned) [Example 170, 3-(3-((4-chlorophenyl)amino)-4-((1,1-dioxidotetrahydro-2H-thiopyran-4-yl)(ethyl)amino)phenyl)-4-methoxybutanoic acid] gave an IC50 of less than 5 nM.

Compound `CCOc1ncc(Nc2cc(C(COC)CC(=O)O)ccc2N(CC)C2CCS(=O)(=O)CC2)cn1` (single isomer, unassigned) [Example 171, 3-(4-((1,1-dioxidotetrahydro-2H-thiopyran-4-yl)(ethyl)amino)-3-((2-ethoxypyrimidin-5-yl)amino)phenyl)-4-methoxybutanoic acid] displayed an IC50 greater than 50 nM.

`CCN(c1ccc(C(COC)CC(=O)O)cc1Nc1ccc(F)cc1)C1CCS(=O)(=O)CC1` (single isomer, unassigned) [Example 172, 3-(4-((1,1-dioxidotetrahydro-2H-thiopyran-4-yl)(ethyl)amino)-3-((4-fluorophenyl)amino)phenyl)-4-methoxybutanoic acid]: the IC50 is less than 50 nM.

Compound `CCN(c1ccc(C(COC)CC(=O)O)cc1Nc1ccc(Cl)cc1)C1CCS(=O)(=O)CC1` (single isomer, unassigned) [Example 174, 3-(3-((4-chlorophenyl)amino)-4-((1,1-dioxidotetrahydro-2H-thiopyran-4-yl)(ethyl)amino)phenyl)-4-methoxybutanoic acid] came in with an IC50 of less than 50 nM.

In turn, `CCCN(c1ccc(C(COC)CC(=O)O)cc1Nc1ccc(Cl)cc1)C1CCS(=O)(=O)CC1` (single isomer, unassigned) [Example 183, 3-(3-((4-chlorophenyl)amino)-4-((1,1-dioxidotetrahydro-2H-thiopyran-4-yl)(propyl)amino)phenyl)-4-methoxybutanoic acid] yielded an IC50 of less than 50 nM.

As for `CCCN(c1ccc(C(COC)CC(=O)O)cc1Nc1ccc(F)cc1)C1CCS(=O)(=O)CC1` (single isomer, unassigned) [Example 184, 3-(4-((1,1-dioxidotetrahydro-2H-thiopyran-4-yl)(propyl)amino)-3-((4-fluorophenyl)amino)phenyl)-4-methoxybutanoic acid], the IC50 is less than 5 nM.

`CCCN(c1ccc(C(COC)CC(=O)O)cc1Nc1ccc(Cl)cc1)C1CCS(=O)(=O)CC1` (single isomer, unassigned) [Example 185, 3-(3-((4-chlorophenyl)amino)-4-((1,1-dioxidotetrahydro-2H-thiopyran-4-yl)(propyl)amino)phenyl)-4-methoxybutanoic acid] showed an IC50 of less than 5 nM.

For `C[C@@H]1CN(c2ccc(C(CC(=O)O)C3CC3)cc2Nc2ccc(C#N)cc2)C[C@H](C)O1` (single isomer, unassigned) [Example 243], the IC50 is less than 50 nM.

Take `C[C@@H]1CN(c2ccc(C(CC(=O)O)C3CC3)cc2Nc2ccc(Cl)cc2)C[C@H](C)O1` (single isomer, unassigned) [Example 244]: the IC50 was less than 50 nM.

Compound `COc1ccc(Nc2cc(C(CC(=O)O)C3CC3)ccc2N2C[C@@H](C)O[C@@H](C)C2)cn1` (single isomer, unassigned) [Example 246] came in with an IC50 greater than 50 nM.

Turning to `C[C@@H]1CN(c2ccc(C(CC(=O)O)C3CC3)cc2Nc2ccc(C#N)cc2)C[C@H](C)O1` (single isomer, unassigned) [Example 247], the IC50 is greater than 50 nM.

`Cc1ccc(NC(=O)Nc2cc(C(CC(=O)O)C3CC3)ccc2N2C[C@@H](C)O[C@@H](C)C2)cc1` (single isomer, unassigned) [Example 251 Enantiomer 1] gave a half-inhibitory concentration (IC50) greater than 50 nM.

In turn, `C[C@@H]1CN(c2ccc(C(CC(=O)O)C3CC3)cc2NC(=O)Nc2ccc(Cl)cc2F)C[C@H](C)O1` (single isomer, unassigned) [Example 252] showed an IC50 greater than 50 nM.

For `CCN(c1ccc(C(CC(=O)O)C2CC2)cc1NC(=O)Nc1ccc(C#N)cc1)C1CCOCC1` (single isomer, unassigned) [Example 255 Enantiomer 1, 3-(3-(3-(4-Cyanophenyl)ureido)-4-(ethyl(tetrahydro-2H-pyran-4-yl)amino)phenyl)-3-cyclopropylpropanoic acid], the IC50 is greater than 50 nM.

Consider `COCCN(c1ccc(C(COC)CC(=O)O)cc1Nc1ccc(Cl)cc1)C1CCOCC1` (single isomer, unassigned) [Example 256 Enantiomer 1, 3-(3-((4-Chlorophenyl)amino)-4-((2-methoxyethyl)(tetrahydro-2H-pyran-4-yl)amino)phenyl)-4-methoxybutanoic acid], for which the IC50 is less than 5 nM.

In turn, `COCCN(c1ccc(C(COC)CC(=O)O)cc1Nc1ccc(C#N)cc1)C1CCOCC1` (single isomer, unassigned) [Example 257, 3-(3-((4-cyanophenyl)amino)-4-((2-methoxyethyl)(tetrahydro-2H-pyran-4-yl)amino)phenyl)-4-methoxybutanoic acid] displayed an IC50 of less than 50 nM.

Regarding `COCCN(c1ccc(C(COC)CC(=O)O)cc1Nc1ccc(F)cc1)C1CCOCC1` (single isomer, unassigned) [Example 258, 3-(3-((4-fluorophenyl)amino)-4-((2-methoxyethyl)(tetrahydro-2H-pyran-4-yl)amino)phenyl)-4-methoxybutanoic acid], the half-maximal inhibitory concentration (IC50) was less than 50 nM.

`COCCN(c1ccc(C(COC)CC(=O)O)cc1NC(=O)Nc1ccc(C)cc1)C1CCOCC1` (single isomer, unassigned) [Example 261 Enantiomer 1, 4-Methoxy-3-(4-((2-methoxyethyl)(tetrahydro-2H-pyran-4-yl)amino)-3-(3-(p-tolyl)ureido)phenyl)butanoic acid] gave an IC50 greater than 50 nM.

Turning to `COCCN(c1ccc(C(COC)CC(=O)O)cc1NC(=O)Nc1ccc(Cl)cc1F)C1CCOCC1` (single isomer, unassigned) [Example 262, 3-(3-(3-(4-chloro-2-fluorophenyl)ureido)-4-((2-methoxyethyl)(tetrahydro-2H-pyran-4-yl)amino)phenyl)-4-methoxybutanoic acid], the half-maximal inhibitory concentration (IC50) is greater than 50 nM.

On to `CC[C@@H](CC(=O)O)c1ccc(N(CC2CC2)CC(C)(C)O)c(Nc2ccc(Cl)cc2)c1` (single isomer, unassigned) [Example 267], for which the IC50 was less than 5 nM.

In the case of `CC[C@@H](CC(=O)O)c1ccc(N(CC2CC2)CC(C)(C)O)c(Nc2ccc(C#N)cc2)c1` (single isomer, unassigned) [Example 268], the IC50 is less than 5 nM.

For `CC[C@@H](CC(=O)O)c1ccc(N(CC2CC2)CC(C)(C)O)c(Nc2ccc(F)cc2)c1` (single isomer, unassigned) [Example 269], the IC50 is less than 50 nM.

The compound `CCC(CC(=O)O)c1ccc(N(CC(F)F)C2CCOCC2)c(Nc2ccc(Cl)cc2)c1` (single isomer, unassigned) [Example 318 Enantiomer 1, 3-(3-((4-Chlorophenyl)amino)-4-((2,2-difluoroethyl)(tetrahydro-2H-pyran-4-yl)amino)phenyl)pentanoic acid] returned an IC50 of less than 5 nM.

Turning to `COCC(CC(=O)O)c1ccc(N(CC(F)F)C2CCOCC2)c(Nc2ccc(Cl)cc2)c1` (single isomer, unassigned) [Example 321 Enantiomer 1, 3-(3-((4-Chlorophenyl)amino)-4-((2,2-difluoroethyl)(tetrahydro-2H-pyran-4-yl)amino)phenyl)-4-methoxybutanoic acid], the IC50 is less than 5 nM.

Take `COCC(CC(=O)O)c1ccc(N(CC(F)F)C2CCOCC2)c(Nc2ccc(C#N)cc2)c1` (single isomer, unassigned) [Example 322, 3-(3-((4-cyanophenyl)amino)-4-((2,2-difluoroethyl)(tetrahydro-2H-pyran-4-yl)amino)phenyl)-4-methoxybutanoic acid]: the IC50 is less than 5 nM.

`CCN(c1ccc([C@@H](COC(C)C)CC(=O)O)cc1Nc1ccc(C#N)cc1)C1CCOCC1` (single isomer, unassigned) [Example 324] gave an IC50 of less than 50 nM.

Turning to `CCN(c1ccc([C@H](COC(C)C)CC(=O)O)cc1Nc1ccc(C#N)cc1)C1CCOCC1` (single isomer, unassigned) [Example 329], the IC50 is less than 50 nM.

`CCC(CC(=O)O)c1ccc(N(CC)C2CCS(=O)(=O)CC2)c(Nc2ccc(Cl)cc2)c1` (single isomer, unassigned) [Example 334 Enantiomer 1, 3-(3-((4-Chlorophenyl)amino)-4-((1,1-dioxidotetrahydro-2H-thiopyran-4-yl)(ethyl)amino)phenyl)pentanoic acid] yielded a half-maximal inhibitory concentration (IC50) of less than 5 nM.

The compound `CCC(CC(=O)O)c1ccc(N(CC)C2CCS(=O)(=O)CC2)c(Nc2ccc(C#N)cc2)c1` (single isomer, unassigned) [Example 335, 3-(3-((4-cyanophenyl)amino)-4-((1,1-dioxidotetrahydro-2H-thiopyran-4-yl)(ethyl)amino)phenyl) pentanoic acid] returned an IC50 of less than 50 nM.

In turn, `CCN(c1ccc(C(CC(=O)O)C2CC2)cc1Nc1ccc(Cl)cc1)C1CCS(=O)(=O)CC1` (single isomer, unassigned) [Example 339 Enantiomer 1, 3-(3-((4-Chlorophenyl)amino)-4-((1,1-dioxidotetrahydro-2H-thiopyran-4-yl)(ethyl)amino)phenyl)-3-cyclopropylpropanoic acid] came in with an IC50 of less than 5 nM.

One may read the IC50 as the point on the concentration scale where inhibition reaches its midpoint. The low end stands for higher potency, the high end for lower potency.
